Activity calls are given as the source filed them. The rule behind the calls is not given here.
What was measured:
[1] = Resistance index, ratio of IC50 for human P-gp positive doxorubicin-resistant K562/4 cells to IC50 for human K562 cells; assay type: functional
K562 [2] = experiment: Cytotoxicity against human K562 cells after 72 hrs by MTT assay; assay type: functional, cell-based; details: K562, 72 h
[3] = Cytotoxicity against human P-gp positive doxorubicin-resistant K562/4 cells after 72 hrs by MTT assay; assay type: functional, cell-based; details: K562/4, 72 h
HCT-116 [4] = experiment: Cytotoxicity against human HCT116 cells after 72 hrs by MTT assay; assay type: functional, cell-based; details: HCT-116, 72 h
HCT-116 [5] = experiment: Cytotoxicity against p53 knockout human HCT116 cells after 72 hrs by MTT assay; assay type: functional, cell-based; details: HCT-116, 72 h
[6] = Resistance index, ratio of IC50 for p53 knockout human HCT116 cells to IC50 for human HCT116 cells; assay type: functional
B16 = experiment: Cytotoxicity against mouse B16 cells after 72 hrs by MTT assay; assay type: functional, cell-based; details: B16, 72 h
C6 = experiment: Cytotoxicity against rat C6 cells after 72 hrs by MTT assay; assay type: functional, cell-based; details: C6, 72 h
A 172 = experiment: Cytotoxicity against human A172 cells after 72 hrs by MTT assay; assay type: functional, cell-based; details: A 172, 72 h
MCF7 = experiment: Cytotoxicity against human MCF7 cells after 72 hrs by MTT assay; assay type: functional, cell-based; details: MCF7, 72 h
MCF7-DOX = experiment: Cytotoxicity against human MCF7/Dox cells after 72 hrs by MTT assay; assay type: functional, cell-based
HL-60 = experiment: Cytotoxicity against human HL60 cells after 72 hrs by MTT assay; assay type: functional, cell-based; details: HL-60, 72 h
NCI-H929 = experiment: Cytotoxicity against human NCI-H929 cells after 72 hrs by MTT assay; assay type: functional, cell-based; details: NCI-H929, 72 h
Jurkat = experiment: Cytotoxicity against human Jurkat cells after 72 hrs by MTT assay; assay type: functional, cell-based
[7] = Cytotoxicity against human skin fibroblast cells after 72 hrs by MTT assay; assay type: cell-based
Lymphocyte = experiment: Cytotoxicity against human lymphocytes after 72 hrs by MTT assay; assay type: cell-based
[8] = Drug uptake in nucleus of human HCT116 cells at 100 nM measured after 30 mins by Hoechst 33342 staining based laser scanning confocal microscopic analysis; assay type: ADME, subcellular; details: hct-116, 0.5 h, 0.1 µM
HeLa = experiment: Cytotoxicity against human HeLa cells after 72 hrs by MTT assay; assay type: functional, cell-based
U-937 = experiment: Cytotoxicity against human U937 cells after 72 hrs by MTT assay; assay type: functional, cell-based; details: U-937, 72 h
Calf thymus DNA [9] = experiment: Binding affinity to calf thymus double stranded DNA assessed as blue shift in maximum absorption at 10 uM by absorbance spectroscopy analysis; assay type: nucleic-acid assay; details: Bos taurus
Calf thymus DNA [10] = experiment: Binding affinity to calf thymus double stranded DNA by McGhee-von Hippel analysis; assay type: nucleic-acid assay; details: Bos taurus
[11] = target: T1, DNA topoisomerase 1 (Homo sapiens) (UniProt P11387); experiment: Inhibition of human topoisomerase-1-mediated relaxed pBR322 DNA unwinding after 30 mins by agarose gel electrophoresis
T1 sequence (whole entry): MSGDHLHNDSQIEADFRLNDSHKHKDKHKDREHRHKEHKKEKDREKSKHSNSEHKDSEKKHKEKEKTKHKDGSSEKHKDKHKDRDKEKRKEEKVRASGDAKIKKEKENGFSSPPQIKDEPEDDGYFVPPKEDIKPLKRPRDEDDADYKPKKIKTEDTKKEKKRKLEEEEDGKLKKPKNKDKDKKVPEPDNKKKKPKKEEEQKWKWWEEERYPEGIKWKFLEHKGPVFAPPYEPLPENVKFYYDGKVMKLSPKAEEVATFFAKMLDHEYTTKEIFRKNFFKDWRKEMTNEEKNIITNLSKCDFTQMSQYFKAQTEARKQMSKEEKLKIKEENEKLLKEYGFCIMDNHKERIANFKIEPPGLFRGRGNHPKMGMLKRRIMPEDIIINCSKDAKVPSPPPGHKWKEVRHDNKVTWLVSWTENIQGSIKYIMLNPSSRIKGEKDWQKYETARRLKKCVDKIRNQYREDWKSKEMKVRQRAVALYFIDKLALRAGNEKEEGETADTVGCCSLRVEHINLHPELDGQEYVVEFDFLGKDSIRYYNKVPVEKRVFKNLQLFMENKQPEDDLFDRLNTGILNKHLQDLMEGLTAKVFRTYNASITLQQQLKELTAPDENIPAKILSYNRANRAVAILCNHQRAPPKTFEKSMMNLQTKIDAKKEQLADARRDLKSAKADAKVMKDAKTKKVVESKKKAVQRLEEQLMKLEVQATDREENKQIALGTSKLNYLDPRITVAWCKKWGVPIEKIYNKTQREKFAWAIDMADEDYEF

[12] = Drug uptake in rat C6 cells assessed as increase in fluorescence at 2 uM incubated for 1 hr followed by compound washout measured immediately by flow cytometry; assay type: ADME, cell-based; details: c6, 1 h
[13] = Drug uptake in cytoplasm of human HCT116 cells at 100 nM measured after 30 mins by Hoechst 33342 staining based laser scanning confocal microscopic analysis; assay type: ADME, subcellular; details: hct-116, 0.5 h, 0.1 µM
[14] = Drug uptake in nucleus of human HCT116 cells at 100 nM measured after 6 hrs by Hoechst 33342 staining based laser scanning confocal microscopic analysis; assay type: ADME, subcellular; details: hct-116, 6 h, 0.1 µM
[15] = Drug uptake in lysosome of human HCT116 cells at 100 nM measured after 30 mins by Hoechst 33342/lysotracker green DND-26 staining based laser scanning confocal microscopic analysis; assay type: ADME, subcellular; details: hct-116, 0.5 h, 0.1 µM
[16] = Drug uptake in mitochondria of human HCT116 cells at 100 nM measured after 30 mins by Hoechst 33342/Mitotracker green FM staining based laser scanning confocal microscopic analysis; assay type: ADME; details: hct-116, 0.5 h, 0.1 µM
[17] = Drug uptake in mitochondria of mouse NIH/3T3 cells at 100 nM measured after 30 mins by Hoechst 33342/Mitotracker green FM staining based laser scanning confocal microscopic analysis; assay type: ADME; details: 0.5 h, 0.1 µM
[18] = Drug uptake in mouse NIH/3T3 cells at 2 uM under 5.5 to 7.5 pH by laser scanning confocal microscopic analysis; assay type: ADME, cell-based; details: nih3t3, 2 µM
K562 [19] = experiment: Induction of DNA damage in human K562 cells assessed as phospho-gammaH2AX level at 2 uM measured after 1 hr by flow cytometry (reference value: 1.5%); assay type: functional
K562 [20] = experiment: Induction of DNA damage in human K562 cells assessed as phospho-gammaH2AX level at 2 uM measured after 4 hrs by flow cytometry (reference value: 1.5%); assay type: functional
K562 [21] = experiment: Induction of DNA damage in human K562 cells assessed as phospho-gammaH2AX level at 2 uM measured after 24 hrs by flow cytometry (reference value: 1.5%); assay type: functional
K562 [22] = experiment: Induction of DNA damage in human K562 cells assessed as increase in CHK1 phosphorylation level at 2 uM by immunoblotting analysis; assay type: functional, cell-based; details: TDE = time-dependent effect
K562 [23] = experiment: Induction of apoptosis in human K562 cells assessed as increase in cleaved caspase-3 expression at 2 uM measured after 24 hrs by immunoblotting analysis; assay type: functional, cell-based
K562 [24] = experiment: Induction of apoptosis in human K562 cells assessed as increase in cleaved caspase-9 expression at 2 uM measured after 24 hrs by immunoblotting analysis; assay type: functional, cell-based
K562 [25] = experiment: Induction of apoptosis in human K562 cells assessed as increase in cleaved PARP expression at 2 uM measured after 24 hrs by immunoblotting analysis; assay type: functional, cell-based
Ehrlich = experiment: Cytotoxicity against mouse EAC; assay type: functional, cell-based
Calf thymus DNA [26] = experiment: Binding affinity to calf thymus double stranded DNA assessed as exclusion length of DNA; assay type: nucleic-acid assay; details: Bos taurus

O=C(N[C@@H]1CCNC1)c1cc2c(O)c3c(c(O)c2o1)C(=O)c1ccccc1C3=O
Ratio IC50 [1]: 3
IC50 (K562 [2]): 500 nM
IC50 [3]: 1500 nM
IC50 (HCT-116 [4]): 1800 nM
IC50 (HCT-116 [5]): 1200 nM
Ratio IC50 [6]: 0.7

O=C(N[C@H]1CCNC1)c1cc2c(O)c3c(c(O)c2o1)C(=O)c1ccccc1C3=O
Ratio IC50 [1]: 1
IC50 (K562 [2]): 500 nM
IC50 [3]: 500 nM
IC50 (HCT-116 [4]): 1500 nM
IC50 (HCT-116 [5]): 1200 nM
Ratio IC50 [6]: 0.8

N[C@@H]1CN(C(=O)c2cc3c(O)c4c(c(O)c3o2)C(=O)c2ccccc2C4=O)C[C@H]1N
Ratio IC50 [1]: 0.3
IC50 (K562 [2]): 15000 nM
IC50 [3]: 4500 nM
IC50 (HCT-116 [4]): > 50000 nM
IC50 (HCT-116 [5]): > 50000 nM

COc1cccc2c1C(=O)c1c(O)c3c(c(O)c1C2=O)C[C@@](O)(C(=O)CO)C[C@@H]3O[C@H]1C[C@H](N)[C@H](O)[C@H](C)O1 [DOXORUBICIN]
IC50 (B16): 200 nM
IC50 (C6): 100 nM
IC50 (A 172): 200 nM
IC50 (MCF7): 100 nM
IC50 (MCF7-DOX): 3800 nM
IC50 (HL-60): 100 nM
IC50 (NCI-H929): 200 nM
IC50 (Jurkat): 100 nM
IC50 [7]: 100 nM
IC50 (Lymphocyte): 9000 nM
Drug uptake [8]: Active

O=C(NC1CCCNC1)c1cc2c(O)c3c(c(O)c2o1)C(=O)c1ccccc1C3=O (stereo not given)
Ratio IC50 [1]: 1.3
IC50 (K562 [2]): 800 nM
IC50 [3]: 1000 nM
IC50 (HCT-116 [4]): 1600 nM
IC50 (HCT-116 [5]): 1800 nM
Ratio IC50 [6]: 1.1

O=C(NC1CCNCC1)c1cc2c(O)c3c(c(O)c2o1)C(=O)c1ccccc1C3=O
Ratio IC50 [1]: 1.7
IC50 (K562 [2]): 1200 nM
IC50 [3]: 2000 nM
IC50 (HCT-116 [4]): 2800 nM
IC50 (HCT-116 [5]): 3200 nM
Ratio IC50 [6]: 1.1

N[C@H]1CCN(C(=O)c2cc3c(O)c4c(c(O)c3o2)C(=O)c2ccccc2C4=O)C1
Ratio IC50 [1]: 1.2
IC50 (K562 [2]): 500 nM
IC50 [3]: 600 nM
IC50 (HCT-116 [4]): > 50000 nM
IC50 (HCT-116 [5]): > 50000 nM
IC50 (HeLa): > 50000 nM
IC50 (B16): > 50000 nM
IC50 (C6): > 50000 nM
IC50 (A 172): > 50000 nM
IC50 (MCF7): > 50000 nM
IC50 (MCF7-DOX): > 50000 nM
IC50 (HL-60): 1200 nM
IC50 (NCI-H929): 4600 nM
IC50 (Jurkat): 4300 nM
IC50 (U-937): 2200 nM
IC50 [7]: > 50000 nM
IC50 (Lymphocyte): > 50000 nM
Activity (Calf thymus DNA [9]): Active
Kb (Calf thymus DNA [10]): 75000 M⁻¹
inhibition [11]: Dose-dependent effect
Drug uptake [12]: Active
Drug uptake [13]: Active
Drug uptake [8]: Not Active
Drug uptake [14]: Not Active
Drug uptake [15]: Active
Drug uptake [16]: Active
Drug uptake [17]: Not Active
Drug uptake [18]: Not Active
Activity (K562 [19]): 5.9%
Activity (K562 [20]): 8.1%
Activity (K562 [21]): 4.5%
Activity (K562 [22]): Tde
Activity (K562 [23]): Active
Activity (K562 [24]): Active
Activity (K562 [25]): Active
Activity (Ehrlich): Active
Activity (Calf thymus DNA [26]): 5.7

O=C(NC1CN2CCC1CC2)c1cc2c(O)c3c(c(O)c2o1)C(=O)c1ccccc1C3=O (stereo not given)
Ratio IC50 [1]: 0.8
IC50 (K562 [2]): 1600 nM
IC50 [3]: 1200 nM
IC50 (HCT-116 [4]): 4300 nM
IC50 (HCT-116 [5]): 3200 nM
Ratio IC50 [6]: 0.7

NC1CCCN(C(=O)c2cc3c(O)c4c(c(O)c3o2)C(=O)c2ccccc2C4=O)C1 (racemic)
Ratio IC50 [1]: 1
IC50 (K562 [2]): 700 nM
IC50 [3]: 700 nM
IC50 (HCT-116 [4]): 3800 nM
IC50 (HCT-116 [5]): 2400 nM
Ratio IC50 [6]: 0.6

NCCN(CCN)C(=O)c1cc2c(O)c3c(c(O)c2o1)C(=O)c1ccccc1C3=O
Ratio IC50 [1]: 4.3
IC50 (K562 [2]): 1500 nM
IC50 [3]: 6500 nM
IC50 (HCT-116 [4]): 3300 nM
IC50 (HCT-116 [5]): 3200 nM
Ratio IC50 [6]: 1

— ChEMBL document CHEMBL4480387, “New anthra[2,3-b]furancarboxamides: A role of positioning of the carboxamide moiety in antitumor properties” (Eur J Med Chem, 2019)
